Reference: ChEMBL document CHEMBL4811258, “Potent Antimalarials with Development Potential Identified by Structure-Guided Computational Optimization of a Pyrrole-Based Dihydroorotate Dehydrogenase Inhibitor Series” (J Med Chem, 2021)
The source made the active and inactive calls. The rule behind the calls is not given here.

Columns and labels:
Plasmodium falciparum [1] = assay: Antimalarial activity against Plasmodium falciparum 3D70087/N9 infected in NOD-SCID IL2Rgamma null mouse assessed as parasitemia level at 50 mg/kg, po administered days after 3 post infection once daily for 4 days measured on day 7 by flow cytometry; type: functional, organism-based; conditions: time 4.0 day
Plasmodium falciparum [2] = tested on: Plasmodium falciparum
in vivo = conditions: Sprague-Dawley, rat, po, 17 mg/kg
Cytochrome P450 2B6 = target: T1, Cytochrome P450 2B6 (Homo sapiens, UniProt P20813)
T1 sequence (P20813 whole entry): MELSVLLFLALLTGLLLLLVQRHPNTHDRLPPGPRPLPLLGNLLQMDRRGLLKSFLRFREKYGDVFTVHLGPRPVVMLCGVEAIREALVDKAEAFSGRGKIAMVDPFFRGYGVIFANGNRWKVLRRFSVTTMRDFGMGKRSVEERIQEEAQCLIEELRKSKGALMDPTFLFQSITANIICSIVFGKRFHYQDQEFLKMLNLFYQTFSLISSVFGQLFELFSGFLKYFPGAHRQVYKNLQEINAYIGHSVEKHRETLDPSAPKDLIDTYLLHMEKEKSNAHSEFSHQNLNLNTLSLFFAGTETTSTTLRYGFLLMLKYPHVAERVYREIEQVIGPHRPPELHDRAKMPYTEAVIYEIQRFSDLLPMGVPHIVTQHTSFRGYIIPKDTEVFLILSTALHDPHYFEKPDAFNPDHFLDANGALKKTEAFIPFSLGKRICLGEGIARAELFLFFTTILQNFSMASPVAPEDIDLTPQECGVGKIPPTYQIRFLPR

[3] = mouse, plasma
[4] = Half life in Swiss mouse at 24 mg/kg, po measured up to 24 hrs by LC-MS analysis; type: ADME, organism-based; conditions: in vivo
Plasmodium falciparum [5] = assay: Antimalarial activity against Plasmodium falciparum 3D70087/N9 infected in orally dosed NOD-SCID IL2Rgamma null mouse assessed as parasitemia level in human red blood cells at 50 mg/kg, po administered days after 1 day post infection twice daily for 6 days measured on day 7 by flow cytometry; type: functional, organism-based; conditions: time 6.0 day
[6] = Apparent half life in Sprague-Dawley rat at 17 mg/kg, po measured up to 24 hrs; type: ADME, organism-based; conditions: in vivo, read-out: t1/2(app) (converted)
Plasmodium falciparum [7] = assay: Antiplasmodial activity against asexual blood stage Plasmodium falciparum D10 expressing yeast DHODH infected in human erythrocytes assessed as parasite killing in presence of proguanil; type: functional, organism-based
Plasmodium falciparum [8] = assay: Antimalarial activity against Plasmodium falciparum 3D70087/N9 infected in orally dosed NOD-SCID IL2Rgamma null mouse assessed as parasitemia level administered days after 3 post infection once daily for 4 days measured on day 7 by flow cytometry; type: functional; conditions: time 4 day
L1210 = assay: Cytotoxicity against mouse L1210 cells; type: cell-based
[9] = Plasma clearance in Sprague-Dawley rat at […], iv measured up to 24 hrs; type: ADME, organism-based; conditions: dose 1.8 mg/kg
Plasmodium falciparum [10] = assay: Antiplasmodial activity against Plasmodium falciparum 3D7 Uganda infected in human erythrocytes assessed as parasite killing using albumax media measured after 72 hrs by SYBR Green assay; type: functional, organism-based; conditions: 3D7, 72 h
[11] = rat, in vivo, po, 10 mg/kg, 24 h
[12] = Binding affinity to microsome (unknown origin); type: ADME; conditions: microsomes
[13] = AUC (0 to infinity) in Sprague-Dawley rat at 17 mg/kg, po measured up to 24 hrs; type: ADME, organism-based; parameters: route oral, dose 17 mg/kg, time <=24; conditions: in vivo
[14] = Volume of distribution at steady state in Sprague-Dawley rat at […], iv measured up to 24 hrs; type: ADME, organism-based; conditions: in vivo, dose 1.8 mg/kg, read-out: Vdss
[15] = Cmax in Swiss mouse at 24 mg/kg, po measured up to 24 hrs by LC-MS analysis; type: ADME, organism-based; parameters: route oral, dose 24 mg/kg, time <=24; conditions: in vivo
[16] = Plasma clearance in Swiss mouse at […], iv measured up to 24 hrs by LC-MS analysis; type: ADME, organism-based; conditions: dose 2.3 mg/kg
[17] = rat, in vivo, po, 10 mg/kg, 24 h; remark: listed apart in the source
[18] = Intrinsic clearance in mouse liver microsomes at 1 uM measured up to 4 hrs by LC-MS analysis; type: ADME, Microsome
[19] = Volume of distribution at steady state in Swiss mouse at […], iv measured up to 24 hrs by LC-MS analysis; type: ADME, organism-based; conditions: in vivo, dose 2.3 mg/kg, read-out: Vdss
[20] = human, caco-2, pH 7.4
[21] = Inhibition of dog DHODH up to 100 uM; parameters: species or system Canis lupus familiaris; conditions: up to 100 µM
[22] = Oral bioavailability in Swiss mouse at […] measured up to 24 hrs by LC-MS analysis; type: ADME, organism-based; conditions: in vivo, dose 2.6 mg/kg
Plasmodium falciparum [23] = assay: Antiplasmodial activity against Plasmodium falciparum Dd2 Uganda infected in human erythrocytes assessed as parasite killing using albumax media measured after 72 hrs by SYBR Green assay; type: functional, organism-based; conditions: Dd2, 72 h
[24] = human, plasma
[25] = Unbound AUC in orally dosed NOD-SCID IL2Rgamma null mouse infected with Plasmodium falciparum 3D70087/N9 administered days after 3 post infection once daily for 4 days measured on day 7 by flow cytometry; type: ADME, organism-based; conditions: in vivo, po, 96 h, time 4 day
[26] = Unbound intrinsic clearance in mouse liver microsomes at 1 uM measured up to 4 hrs by LC-MS analysis; type: ADME, Microsome
[27] = Cmax in Swiss mouse at […], po measured up to 24 hrs by LC-MS analysis; type: ADME, organism-based; parameters: route oral, dose 2.6 mg/kg, time <=24; conditions: in vivo
[28] = AUC (0 to infinity) in Swiss mouse at 24 mg/kg, po measured up to 24 hrs by LC-MS analysis; type: ADME, organism-based; parameters: route oral, dose 24 mg/kg, time <=24; conditions: in vivo
[29] = rat, plasma
[30] = Oral bioavailability in Sprague-Dawley rat at 17 mg/kg measured up to 24 hrs; type: ADME, organism-based; conditions: in vivo
[31] = Cmax in Sprague-Dawley rat at 17 mg/kg, po measured up to 24 hrs; type: ADME, organism-based; parameters: route oral, dose 17 mg/kg, time <=24; conditions: in vivo
[32] = rat, in vivo, po, 10 mg/kg, 24 h; remark: listed apart in the source
Plasmodium falciparum [33] = assay: Antiplasmodial activity against asexual blood stage Plasmodium falciparum D10 expressing yeast DHODH infected in human erythrocytes assessed as parasite killing; type: functional, organism-based
[34] = Half life in Swiss mouse at […], po measured up to 24 hrs by LC-MS analysis; type: ADME, organism-based; conditions: in vivo, dose 2.6 mg/kg
Albumin = Albumin (Bos taurus, UniProt P02769); assay: Binding affinity to bovine serum albumin by Albumax assay; type: ADME; conditions: cattle, isolated protein
Chain of Albumin (P02769 whole entry): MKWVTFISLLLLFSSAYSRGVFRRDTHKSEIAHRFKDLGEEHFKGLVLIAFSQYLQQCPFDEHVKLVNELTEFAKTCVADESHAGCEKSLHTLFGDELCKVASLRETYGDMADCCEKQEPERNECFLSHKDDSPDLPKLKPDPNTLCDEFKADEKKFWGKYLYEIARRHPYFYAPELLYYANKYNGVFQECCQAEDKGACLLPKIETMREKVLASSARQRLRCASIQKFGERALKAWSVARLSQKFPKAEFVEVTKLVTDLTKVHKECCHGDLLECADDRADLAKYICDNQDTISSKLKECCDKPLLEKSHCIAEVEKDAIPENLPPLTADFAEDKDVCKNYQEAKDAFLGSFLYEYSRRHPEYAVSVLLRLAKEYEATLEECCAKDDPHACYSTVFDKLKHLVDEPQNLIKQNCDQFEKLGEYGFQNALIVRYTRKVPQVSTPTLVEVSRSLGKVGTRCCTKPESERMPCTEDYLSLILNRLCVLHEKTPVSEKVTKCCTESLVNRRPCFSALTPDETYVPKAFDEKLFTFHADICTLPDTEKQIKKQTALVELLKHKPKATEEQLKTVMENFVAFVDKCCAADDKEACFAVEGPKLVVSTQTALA

In the case of `Cc1c(C2(c3ccc(C(F)(F)F)nc3)CC2)c[nH]c1C(=O)NC(C)c1nc[nH]n1` (stereo in doubt; form 1), the Activity (Plasmodium falciparum [1]) is reported as “Active”, the EC50 (Plasmodium falciparum [2]) is reported as 0.17 µM and the Tmax at 24 h (in vivo) is reported as 2.5 h. It also gave an IC50 (Cytochrome P450 2B6) of over 20 µM, a PPB [3] of 92.1% and a t1/2 [4] of 4.5 h. The Activity (Plasmodium falciparum [5]) was “Active”, the half-life [6] was 3.7 h and the EC50 (Plasmodium falciparum [7]) was over 10 µM. For the same compound, the ED50 (Plasmodium falciparum [8]) was 26 mg/kg, the Activity (L1210) was “Non-Toxic” and the clearance at 24 h [9] was 6.8 mL/min/kg. For the same compound, the EC50 (Plasmodium falciparum [10]) was 0.0075 µM, the “t1/2(app)” value [11] was 5.9 h and the Activity [12] was 34.2%. It also gave an AUC(0-inf) [13] of 120 µM·h, a Vd at 24 h [14] of 2.1 L/kg and a Cmax [15] of 20 µM. For the same compound, the clearance at 24 h [16] was 2.8 mL/min/kg, the F [17] was 77% and the Intrinsic clearance [18] was 11 µL/min/mg. For the same compound, the Vd at 24 h [19] was 1.3 L/kg, the Papp [20] was 70 10^-6 cm/s and the “inhibition (INH)” value [21] was “Not Active”. The bioavailability at 24 h [22] was 74%, the EC50 (Plasmodium falciparum [23]) was 0.0069 µM and the PPB [24] was 92.8%. For the same compound, the fAUC [25] was 4.1 µM·h, the CL free [26] was 17 µL/min/mg and the Cmax at 24 h [27] was 2.6 µM. For the same compound, the AUC [28] was 250 µM·h, the PPB [29] was 94.3% and the bioavailability [30] was 110%. The Cmax [31] was 14 µM, the AUC [32] was 47 µM·h and the EC50 (Plasmodium falciparum [33]) was over 10 µM. The half-life at 24 h [34] was 3.4 h and the Activity (Albumin) was 71.9%.
